Reference: US7160733B2, “Ligand specific to β2-glycoprotein I and use thereof” (priority 2001, dated 2007)
Each block holds one molecule with its values, some of them ahead of it.

Legend:
β2-GPI [1] = target: T1, β2-GPI (Homo sapiens, UniProt P02749); test: Optical biosensor (IAsys): binding to solid phase β2-GPI; conditions: result in words
T1 construct: β2-GPI was purified from normal human plasma as described in [35] with slight modification; from tissue; host or cells: pooled normal human plasma from healthy subjects
T1 sequence (P02749 20-345): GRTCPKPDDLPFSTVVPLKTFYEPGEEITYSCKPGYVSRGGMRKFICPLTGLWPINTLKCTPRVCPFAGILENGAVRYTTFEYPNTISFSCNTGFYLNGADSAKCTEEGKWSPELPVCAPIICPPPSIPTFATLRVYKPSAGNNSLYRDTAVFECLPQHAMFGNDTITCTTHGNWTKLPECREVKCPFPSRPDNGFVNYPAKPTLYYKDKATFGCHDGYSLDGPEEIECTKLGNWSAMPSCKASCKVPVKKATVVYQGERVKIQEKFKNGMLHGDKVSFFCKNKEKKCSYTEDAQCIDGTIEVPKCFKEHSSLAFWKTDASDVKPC
Text: (§1) FIG. 1. Molecular interactions among β2-GPI, LDLs, […] (PLs), and anti-β2-GPI autoantibody, detected by an optical biosensor. • A: LDL (open square) or oxLDL (closed square) binding to solid phase β2-GPI; • B: LDL (open square) or oxLDL (closed square) binding to solid phase WB-CAL-1 in the presence of β2-GPI; • C: DOPE (open circle) or CL (closed circle) binding to solid phase β2-GPI; and • D: DOPE (open circle) or CL (closed circle) binding to solid phase WB-CAL-1 in the presence of β2-GPI.
(§2) Real-time molecular analysis was performed using an optical biosensor, IAsys (product of Affinity Sensors).
(§3) Binding of β2-GPI to LDLs or liposomes: Biotinyl-β2-GPI was immobilized on a biotinyl-cuvette via streptavidin. LDLs or liposomes at various concentrations were placed in the cuvette. Antibodies binding to LDLs or liposomes: The biotinyl-WB-CAL-1 was immobilized on the cuvette. LDLs or liposomes were added at various concentrations in the presence (10 μg/mL) or absence of β2-GPI.

WB-CAL-1 [2] = test: Optical biosensor (IAsys): binding to solid phase WB-CAL-1 in the presence of β2-GPI; design: species or system mouse; conditions: β2-GPI 10 μg/mL, result in words
Text: as §1, §2, §3

β2-GPI [3] = target: T1, β2-GPI; test: ELISA on solid-phase lipid (ligand)-coated plate: β2-GPI binding detected with Cof-22; conditions: Experiment 1; Absorbance, mean ± SD, n = 3; solid-phase lipid, β2-GPI 15 μg/mL
Method: (§4) Binding to extracted lipids: A microtiter plate (Immulon 1B, Dynex Technologies Inc.) was coated with lipids extracted from LDLs (50 μg/mL, 50 μL/well) by ethanol evaporation. The wells were blocked with PBS containing 1% BSA for one hour and the wells were incubated with 30 μg/mL of β2-GPI for one hour. Then, β2-GPI binding was detected using Cof-22 and HRP-labeled anti-mouse IgG antibodies. Alternatively, an anti-β2-GPI autoantibody (Cof-22, WB-CAL-1, or EY2C9) was diluted with a 0.3% BSA-containing PBS, and the diluted antibody was added to the coated plate (1.0 μg/mL, 100 μL/well) and incubated with β2-GPI (15 μg/mL) for one hour. The binding of the antibody was detected by an HRP-labeled anti-mouse IgG /or an anti-human IgM. The color was developed with H2O2 and o-phenylenediamine, and OD was measured at 490 nm. Between these steps, extensive washing were done using PBS containing 0.05% Tween 20.
(§5) Synthesized oxLig-1 (50 μg/mL, 50 μL/well) was adsorbed by evaporation on a polystyrene plate (Immulon 1B; Dynex Technologies Inc.), and the plate was then blocked with 1% BSA. Serum samples (diluted 1:100 with PBS containing 0.3% BSA) were incubated in the wells with β2-GPI (15 μg/mL) or other proteins for one hour at room temperature. Antibody binding was detected with HRP-labeled anti-human IgG. Further steps were performed through a method as described in “anti-β2-GPI ELISA.”
(§6) CL (50 μg/mL, 50 μL/well) was adsorbed on a polystyrene plate (Immulon 1B), and further steps were performed through a method as described in “ELISA for antibodies against a protein-oxLig-1 complex.”

WB-CAL-1 [4] = test: ELISA on solid-phase lipid (ligand)-coated plate: WB-CAL-1 binding in presence of β2-GPI; design: species or system mouse; conditions: Absorbance, mean ± SD, n = 3; for Binding of protein-dependent oxLig-1 antibody, WB-CAL-1: Experiment 2, synthesized oxLig-1-solidified plate, added protein 15 μg/mL
Method: as §4, §5, §6

EY2C9 = test: ELISA on solid-phase lipid (ligand)-coated plate: EY2C9 binding in presence of β2-GPI; design: species or system human; conditions: Absorbance, mean ± SD, n = 3; for Binding of protein-dependent oxLig-1 antibody, EY2C9: Experiment 2, synthesized oxLig-1-solidified plate, added protein 15 μg/mL
Method: as §4, §5, §6

APS-1 = test: ELISA on solid-phase lipid-coated plate: binding of antibodies of APS patient serum APS-1; design: species or system human; conditions: Absorbance, mean ± SD, n = 3; for Binding of protein-dependent oxLig-1 antibody, APS-1: Experiment 2, synthesized oxLig-1-solidified plate, added protein 15 μg/mL
Method: (§7) To eliminate endogenous β2-GPI in some experiments, serum samples were passed through a heparin-Sepharose column. The effluent was dialyzed against PBS and was used for ELISAs.
as §5, §6

APS-2 = test: ELISA on solid-phase lipid-coated plate: binding of antibodies of APS patient serum APS-2; design: species or system human; conditions: Absorbance, mean ± SD, n = 3; for Binding of protein-dependent oxLig-1 antibody, APS-2: Experiment 2, synthesized oxLig-1-solidified plate, added protein 15 μg/mL
Method: as §7, §5, §6

anti-β2-GPI antibodies = test: ELISA of the anti-β2-GPI antibodies by use of a ligand-coated plate (results in words); type: binding
Method: as §4, §5

β2-GPI [5] = test: ELISA on solid-phase lipid (ligand)-coated plate: β2-GPI binding detected with Cof-22; design: species or system human; conditions: Experiment 2; Absorbance, mean ± SD, n = 3; synthesized oxLig-1-solidified plate, added protein 15 μg/mL
Method: as §4, §5, §6

[6] = Experiment 1, solid-phase lipid, β2-GPI 15 μg/mL
[7] = Experiment 1, solid-phase lipid, β2-GPI 15 μg/mL, serum with β2-GPI removed

Binding of β2-GPI-dependent aCL, Cof-22 (β2-GPI [3]): 1.132 ± 0.025 | Binding of β2-GPI-dependent aCL, WB-CAL-1 (WB-CAL-1 [4]; [6]): 1.361 ± 0.008 | Binding of β2-GPI-dependent aCL, EY2C9 (EY2C9; [6]): 1.269 ± 0.014 | Binding of β2-GPI-dependent aCL, APS-1 (APS-1; [7]): 2.099 ± 0.216 | Binding of β2-GPI-dependent aCL, APS-2 (APS-2; [7]): 1.282 ± 0.041 | binding to solid phase β2-GPI (β2-GPI [1]): large extent of binding | binding to solid phase WB-CAL-1 in the presence of β2-GPI (WB-CAL-1 [2]): dose-dependent binding
Molecule: Cardiolipin [CL, reference compound]
cross-reaction of autoantibodies derived from APS with β2-GPI complexed with lipid (anti-β2-GPI antibodies; result in words): cross-reacted

Binding of protein-dependent oxLig-1 antibody, Cof-22 (β2-GPI [5]): 0.049 ± 0.001 | Binding of protein-dependent oxLig-1 antibody, WB-CAL-1 (WB-CAL-1 [4]): 0.006 ± 0.001 | Binding of protein-dependent oxLig-1 antibody, EY2C9 (EY2C9): 0.006 ± 0.001 | Binding of protein-dependent oxLig-1 antibody, APS-1 (APS-1): 0.018 ± 0.011 | Binding of protein-dependent oxLig-1 antibody, APS-2 (APS-2): 0.015 ± 0.002 | antibody binding to solid-phase oxLig-1 provided by added protein (anti-β2-GPI antibodies; Exp-2, result in words): no antibody binding
Molecule: Haptoglobin: protein having sushi domains, without PL binding property

Further lines, the molecule ahead of its results:

Molecule: CCCCCCCC/C=C\CCCCCCCC(=O)OC[C@H](COP(=O)(O)OCCN)OC(=O)CCCCCCC/C=C\CCCCCCCC [DOPE]
binding to solid phase β2-GPI (β2-GPI [1]): did not show any specific binding | binding to solid phase WB-CAL-1 in the presence of β2-GPI (WB-CAL-1 [2]): did not

B1: Ovalbumin: control protein added in Experiment 2 (protein, UniProt P01012 2-386, looked up)
Ovalbumin: GSIGAASMEFCFDVFKELKVHHANENIFYCPIAIMSALAMVYLGAKDSTRTQINKVVRFDKLPGFGDSIEAQCGTSVNVHSSLRDILNQITKPNDVYSFSLASRLYAEERYPILPEYLQCVKELYRGGLEPINFQTAADQARELINSWVESQTNGIIRNVLQPSSVDSQTAMVLVNAIVFKGLWEKAFKDEDTQAMPFRVTEQESKPVQMMYQIGLFRVASMASEKMKILELPFASGTMSMLVLLPDEVSGLEQLESIINFEKLTEWTSSNVMEERKIKVYLPRMKMEEKYNLTSVLMAMGITDVFSSSANLSGISSAESLKISQAVHAAHAEINEAGREVVGSAEAGVDAASVSEEFRADHPFLFCIKHIATNAVLFFGRCVSP
Binding of protein-dependent oxLig-1 antibody, Cof-22 (β2-GPI [5]): 0.042 ± 0.001 | Binding of protein-dependent oxLig-1 antibody, WB-CAL-1 (WB-CAL-1 [4]): 0.006 ± 0.002 | Binding of protein-dependent oxLig-1 antibody, EY2C9 (EY2C9): 0.004 ± 0.002 | Binding of protein-dependent oxLig-1 antibody, APS-1 (APS-1): 0.009 ± 0.004 | Binding of protein-dependent oxLig-1 antibody, APS-2 (APS-2): 0.016 ± 0.001
